Data: patent US12503454B2, “LPA receptor antagonists and uses thereof” (Gilead Sciences, Inc., priority 2021, dated 2025)

target: human LPAR1 (Homo sapiens, UniProt Q92633); experiment: LPAR1 intracellular calcium mobilization assay (antagonist mode, FLIPR); type: cell-based; conditions: CHO-K1 EDG2 cells expressing human LPAR1; test compound 0.5 nM to 10 μM pre-incubated 60 minutes at 37° C., then LPA 18:2 at EC80 concentration (100 nM)
How it was run: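 CHO-K1 cells expressing human LPAR1, Calcium 6 dye-loaded with 2.5 mM probenecid, pre-incubated 60 min at 37°C with compound (0.5 nM–10 μM), then challenged with LPA 18:2 at EC80 (100 nM). FLIPR Tetra signal amplitude (max minus min) plotted against log concentration.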

Sequence of human LPAR1 (Q92633 whole entry): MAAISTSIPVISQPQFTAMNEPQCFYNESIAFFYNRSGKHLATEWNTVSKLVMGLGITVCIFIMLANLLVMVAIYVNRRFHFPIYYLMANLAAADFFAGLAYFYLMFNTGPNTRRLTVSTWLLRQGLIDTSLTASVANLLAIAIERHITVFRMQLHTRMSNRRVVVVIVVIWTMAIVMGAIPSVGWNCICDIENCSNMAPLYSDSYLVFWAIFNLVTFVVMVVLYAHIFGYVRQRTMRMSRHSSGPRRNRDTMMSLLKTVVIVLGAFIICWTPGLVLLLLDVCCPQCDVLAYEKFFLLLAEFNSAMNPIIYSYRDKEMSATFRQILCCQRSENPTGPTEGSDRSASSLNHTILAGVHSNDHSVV

Row | SMILES | EC50 [nM]
1 | C[C@@H](OC(=O)Nc1c(-c2ccc(C(=O)NC34CC(CO)(C3)C4)cn2)nnn1C)c1cccnc1Cl [Compound 13] | 251
2 | C[C@@H](OC(=O)Nc1c(-c2ccc(C(=O)NC34CC(C3)C4)cn2)nnn1C)c1cccnc1Cl [Compound 10, (R)-1-(2-chloro-pyridin-3-yl)-ethyl (4-(5-(bicyclo[1.1.1]-pentan-1-yl-carbamoyl)-pyridin-2-yl)-1-methyl-1H-1,2,3-triazol-5-yl)carbamate] | 439
3 | C[C@@H](OC(=O)Nc1c(-c2ccc(C(=O)Nc3ccc(N4CCOCC4)cc3)cn2)nnn1C)c1cccnc1Cl [Compound 17, (R)-1-(2-chloro-pyridin-3-yl)-ethyl (1-methyl-4-(5-((4-morph-olinophenyl)-carbamoyl)-pyridin-2-yl)-1H-1,2,3-triazol-5-yl)carbamate] | 649
4 | C[C@@H](OC(=O)Nc1c(-c2ccc(C(=O)NC34CC(C(F)F)(C3)C4)cn2)nnn1C)c1cc(F)cnc1F [Compound 23, (R)-1-(2,5-difluoro-pyridin-3-yl)ethyl (4-(5-((3-(difluoro-methyl)bicyclo-[1.1.1]pentan-1-yl)carbamoyl)-pyridin-2-yl)-1-methyl-1H-1,2,3-triazol-5-yl)-carbamate] | 159
5 | C[C@@H](OC(=O)Nc1c(-c2ccc(C(=O)Nc3ccc(C(F)(F)F)nc3)cn2)nnn1C)c1cc(F)cnc1F [Compound 25, (R)-1-(2,5-difluoro-pyridin-3-yl)ethyl (1-methyl-4-(5-((6-(trifluoromethyl)-pyridin-3-yl)-carbamoyl)pyridin-2-yl)-1H-1,2,3-triazol-5-yl)-carbamate] | 364
6 | C[C@@H](OC(=O)Nc1c(-c2ccc(C(=O)NC3CC(F)(F)C3)cn2)nnn1C)c1cccnc1Cl [Compound 3, (R)-1-(2-chloro-pyridin-3-yl)-ethyl (4-(5-((3,3-difluoro-cyclobutyl)-carbamoyl)-pyridin-2-yl)-1-methyl-1H-1,2,3-triazol-5-yl)carbamate] | 1420

Continued, values first:

Row | EC50 [nM] | SMILES
7 | 140 | C[C@@H](OC(=O)Nc1c(-c2ccc(C(=O)Nc3ccnc(Cl)c3F)cn2)nnn1C)c1cc(F)cnc1F [Compound 35, (R)-1-(2,5-difluoro-pyridin-3-yl)ethyl (4-(5-((2-chloro-3-fluoropyridin-4-yl)-carbamoyl)-pyridin-2-yl)-1-methyl-1H-1,2,3-triazol-5-yl)-carbamate]
8 | 80.7 | C[C@@H](OC(=O)Nc1c(-c2ccc(C(=O)NC34CC(C(F)F)(C3)C4)cn2)nnn1C)c1cc(F)cnc1Cl [Compound 48, (R)-1-(2-chloro-5-fluoropyridin-3-yl)ethyl (4-(5-((3-(difluoromethyl)-bicyclo[1.1.1]-pentan-1-yl)-carbamoyl)pyridin-2-yl)-1-methyl-1H-1,2,3-triazol-5-yl)carbamate]
9 | < 4.6 | C[C@@H](OC(=O)Nc1c(-c2ccc(C(=O)NC34CC(c5ccccc5)(C3)C4)cn2)nnn1C)c1cc(F)cnc1F [Compound 26]
10 | 8.7 | C[C@@H](OC(=O)Nc1c(-c2ccc(C(=O)Nc3ccnc(C#N)c3)cn2)nnn1C)c1cc(F)cnc1Cl [Compound 50, (R)-1-(2-chloro-5-fluoropyridin-3-yl)ethyl (4-(5-((2-cyanopyridin-4-yl)carbamoyl)-pyridin-2-yl)-1-methyl-1H-1,2,3-triazol-5-yl)-carbamate]
11 | 3420 | C[C@@H](OC(=O)Nc1c(-c2ccc(C(=O)NC34CC(S(C)(=O)=O)(C3)C4)cn2)nnn1C)c1cc(F)cnc1F [Compound 29, (R)-1-(2,5-difluoro-pyridin-3-yl)ethyl (1-methyl-4-(5-((3-(methylsulfon-yl)bicyclo[1.1.1]-pentan-1-yl)carbam-oyl)pyridin-2-yl)-1H-1,2,3-triazol-5-yl)carbamate]
12 | 42.8 | C[C@@H](OC(=O)Nc1c(-c2ccc(C(=O)Nc3ccnc(F)c3)cn2)nnn1C)c1cc(F)cnc1F [Compound 27, (R)-1-(2,5-difluoro-pyridin-3-yl)ethyl (4-(5-((2-fluoro-pyridin-4-yl)-carbamoyl)pyridin-2-yl)-1-methyl-1H-1,2,3-triazol-5-yl)-carbamate]
